What all share (assay): relative viability (nuclei count vs DMSO), 5 days (fraction); higher = more cells survive
Compound in the test “IMD-0354 + Pictilisib”: O=C(Nc1cc(C(F)(F)F)cc(C(F)(F)F)c1)c1cc(Cl)ccc1O [IMD-0354] + CS(=O)(=O)N1CCN(Cc2cc3nc(-c4cccc5[nH]ncc45)nc(N4CCOCC4)c3s2)CC1 [Pictilisib] (partner 1 µM)
Summed up:
(§1)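 Dosing by pin tool came one day after lung cancer cell lines were seeded in 1536-well plates, using either one drug or a fixed anchor-drug dose plus five library-drug doses (not always all listed) in √10 steps. After 5 days, nuclei were counted on 4× images. Relative viability is treated-well nuclei count divided by vehicle-well nuclei count, and values are medians of duplicate plates.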

Compound in the test “CX-5461 + Phenformin”: Cc1cnc(CNC(=O)c2c(=O)c3ccc(N4CCCN(C)CC4)nc3n3c2sc2ccccc23)cn1 [CX-5461] + N=C(N)NC(=N)NCCc1ccccc1 [Phenformin] (partner 250 µM)
The procedure, abridged: as §1

Compound in the test “IMD-0354 + Trametinib”: O=C(Nc1cc(C(F)(F)F)cc(C(F)(F)F)c1)c1cc(Cl)ccc1O [IMD-0354] + CC(=O)Nc1cccc(-n2c(=O)n(C3CC3)c(=O)c3c(Nc4ccc(I)cc4F)n(C)c(=O)c(C)c32)c1 [Trametinib] (partner 0.02 µM)
Summed up: as §1

Compound in the test “IMD-0354 + Vorinostat”: O=C(Nc1cc(C(F)(F)F)cc(C(F)(F)F)c1)c1cc(Cl)ccc1O [IMD-0354] + O=C(CCCCCCC(=O)Nc1ccccc1)NO [Vorinostat] (partner 1 µM)
The procedure, abridged: as §1

Consider NCI-H2087, for which the relative viability was 0.711 with IMD-0354 + Pictilisib (first compound 0.04 µM); 0.979 with IMD-0354 + Pictilisib (first compound 0.1265 µM); 0.43 in the test with IMD-0354 + Pictilisib (first compound 0.4 µM); 0.198 in the test with IMD-0354 + Pictilisib (first compound 1.265 µM); 0.228 with IMD-0354 + Pictilisib (first compound 4 µM); 0.411 in the test with CX-5461 + Phenformin (first compound 0.01 µM). The relative viability in the test with CX-5461 + Phenformin (first compound 0.03162 µM) is 0.406; with CX-5461 + Phenformin (first compound 0.1 µM), 0.398; with CX-5461 + Phenformin (first compound 0.3162 µM), 0.316; in the test with CX-5461 + Phenformin (first compound 1 µM), 0.32; with IMD-0354 + Trametinib (first compound 0.04 µM), 0.18; with IMD-0354 + Trametinib (first compound 0.1265 µM), 0.183. Moreover, the relative viability with IMD-0354 + Trametinib (first compound 0.4 µM) is 0.125; with IMD-0354 + Trametinib (first compound 1.265 µM), 0.097; in the test with IMD-0354 + Trametinib (first compound 4 µM), 0.116; with IMD-0354 + Vorinostat (first compound 0.04 µM), 0.806; in the test with IMD-0354 + Vorinostat (first compound 0.1265 µM) it was 0.837; with IMD-0354 + Vorinostat (first compound 0.4 µM), 0.2. Moreover, the relative viability with IMD-0354 + Vorinostat (first compound 1.265 µM) worked out at 0.0721; in the test with IMD-0354 + Vorinostat (first compound 4 µM) it was 0.0731.

On to NCI-H2126, for which the relative viability with IMD-0354 + Pictilisib (first compound 0.04 µM) turned out to be 0.527; in the test with IMD-0354 + Pictilisib (first compound 0.1265 µM), 0.478; with IMD-0354 + Pictilisib (first compound 0.4 µM), 0.471; in the test with IMD-0354 + Pictilisib (first compound 1.265 µM) it was 0.353; with IMD-0354 + Pictilisib (first compound 4 µM) it was 0.302; with CX-5461 + Phenformin (first compound 0.01 µM) it was 0.576. The relative viability with CX-5461 + Phenformin (first compound 0.03162 µM) came out at 0.542; with CX-5461 + Phenformin (first compound 0.1 µM) it was 0.513; with CX-5461 + Phenformin (first compound 0.3162 µM), 0.589; in the test with CX-5461 + Phenformin (first compound 1 µM), 0.407; with IMD-0354 + Trametinib (first compound 0.04 µM), 0.591; with IMD-0354 + Trametinib (first compound 0.1265 µM), 0.558. For the same cell line, the relative viability was 0.491 with IMD-0354 + Trametinib (first compound 0.4 µM); 0.644 with IMD-0354 + Trametinib (first compound 1.265 µM); 0.31 in the test with IMD-0354 + Trametinib (first compound 4 µM); 0.762 with IMD-0354 + Vorinostat (first compound 0.04 µM); 0.826 with IMD-0354 + Vorinostat (first compound 0.1265 µM); 0.692 with IMD-0354 + Vorinostat (first compound 0.4 µM). Besides, the relative viability with IMD-0354 + Vorinostat (first compound 1.265 µM) came out at 0.382; in the test with IMD-0354 + Vorinostat (first compound 4 µM), 0.289.

Consider NCI-H2170, for which the relative viability is 0.283 with IMD-0354 + Pictilisib (first compound 0.04 µM); 0.304 with IMD-0354 + Pictilisib (first compound 0.1265 µM); 0.308 in the test with IMD-0354 + Pictilisib (first compound 0.4 µM); 0.284 with IMD-0354 + Pictilisib (first compound 1.265 µM); 0.277 in the test with IMD-0354 + Pictilisib (first compound 4 µM); 0.44 in the test with CX-5461 + Phenformin (first compound 0.01 µM). The relative viability with CX-5461 + Phenformin (first compound 0.03162 µM) stood at 0.418; with CX-5461 + Phenformin (first compound 0.1 µM), 0.407; in the test with CX-5461 + Phenformin (first compound 0.3162 µM), 0.363; with CX-5461 + Phenformin (first compound 1 µM), 0.322; with IMD-0354 + Trametinib (first compound 0.04 µM), 1.03; with IMD-0354 + Trametinib (first compound 0.1265 µM), 0.909. The relative viability worked out at 0.562 with IMD-0354 + Trametinib (first compound 0.4 µM); 0.897 with IMD-0354 + Trametinib (first compound 1.265 µM); 0.481 with IMD-0354 + Trametinib (first compound 4 µM); 0.859 with IMD-0354 + Vorinostat (first compound 0.04 µM); 0.89 with IMD-0354 + Vorinostat (first compound 0.1265 µM); 0.573 with IMD-0354 + Vorinostat (first compound 0.4 µM). Moreover, the relative viability was 0.74 with IMD-0354 + Vorinostat (first compound 1.265 µM) and 0.231 with IMD-0354 + Vorinostat (first compound 4 µM).

For the cell line NCI-H2228, the relative viability in the test with IMD-0354 + Pictilisib (first compound 0.04 µM) is 0.388; with IMD-0354 + Pictilisib (first compound 0.1265 µM) it was 0.367; with IMD-0354 + Pictilisib (first compound 0.4 µM) it was 0.217; with IMD-0354 + Pictilisib (first compound 1.265 µM), 0.365; in the test with IMD-0354 + Pictilisib (first compound 4 µM), 0.247; in the test with CX-5461 + Phenformin (first compound 0.01 µM), 0.327. The relative viability in the test with CX-5461 + Phenformin (first compound 0.03162 µM) came out at 0.204; with CX-5461 + Phenformin (first compound 0.1 µM) it was 0.184; with CX-5461 + Phenformin (first compound 0.3162 µM), 0.26; with CX-5461 + Phenformin (first compound 1 µM), 0.0912; with IMD-0354 + Trametinib (first compound 0.04 µM), 0.472; with IMD-0354 + Trametinib (first compound 0.1265 µM) it was 0.454. Also, the relative viability with IMD-0354 + Trametinib (first compound 0.4 µM) worked out at 0.43; with IMD-0354 + Trametinib (first compound 1.265 µM), 0.171; with IMD-0354 + Trametinib (first compound 4 µM), 0.232; in the test with IMD-0354 + Vorinostat (first compound 0.04 µM), 0.439; with IMD-0354 + Vorinostat (first compound 0.1265 µM) it was 0.542; with IMD-0354 + Vorinostat (first compound 0.4 µM) it was 0.434. In addition, the values for the relative viability in the test with IMD-0354 + Vorinostat (first compound 1.265 µM) and with IMD-0354 + Vorinostat (first compound 4 µM) were 0.425 and 0.247, respectively.

NCI-H2347: the relative viability turned out to be 0.77 in the test with IMD-0354 + Pictilisib (first compound 0.04 µM); 0.532 with IMD-0354 + Pictilisib (first compound 0.1265 µM); 0.679 with IMD-0354 + Pictilisib (first compound 0.4 µM); 0.624 with IMD-0354 + Pictilisib (first compound 1.265 µM); 0.392 with IMD-0354 + Pictilisib (first compound 4 µM); 0.546 in the test with CX-5461 + Phenformin (first compound 0.01 µM). Also, the relative viability in the test with CX-5461 + Phenformin (first compound 0.03162 µM) turned out to be 0.361; in the test with CX-5461 + Phenformin (first compound 0.1 µM), 0.337; with CX-5461 + Phenformin (first compound 0.3162 µM), 0.338; with CX-5461 + Phenformin (first compound 1 µM) it was 0.397; in the test with IMD-0354 + Trametinib (first compound 0.04 µM), 0.279; in the test with IMD-0354 + Trametinib (first compound 0.1265 µM), 0.296. In addition, the relative viability with IMD-0354 + Trametinib (first compound 0.4 µM) is 0.227; with IMD-0354 + Trametinib (first compound 1.265 µM), 0.27; in the test with IMD-0354 + Trametinib (first compound 4 µM) it was 0.207; with IMD-0354 + Vorinostat (first compound 0.04 µM), 0.636; with IMD-0354 + Vorinostat (first compound 0.1265 µM) it was 0.629; with IMD-0354 + Vorinostat (first compound 0.4 µM) it was 0.512. Besides, the values for the relative viability with IMD-0354 + Vorinostat (first compound 1.265 µM) and with IMD-0354 + Vorinostat (first compound 4 µM) were 0.315 and 0.382, respectively.

With NCI-H2405, the relative viability with IMD-0354 + Pictilisib (first compound 0.04 µM) came to 0.536; with IMD-0354 + Pictilisib (first compound 0.1265 µM) it was 0.521; with IMD-0354 + Pictilisib (first compound 0.4 µM), 0.34; with IMD-0354 + Pictilisib (first compound 1.265 µM) it was 0.306; with IMD-0354 + Pictilisib (first compound 4 µM), 0.172; with CX-5461 + Phenformin (first compound 0.01 µM), 0.411. Moreover, the relative viability with CX-5461 + Phenformin (first compound 0.03162 µM) stood at 0.363; with CX-5461 + Phenformin (first compound 0.1 µM) it was 0.415; in the test with CX-5461 + Phenformin (first compound 0.3162 µM) it was 0.326; in the test with CX-5461 + Phenformin (first compound 1 µM), 0.342; in the test with IMD-0354 + Trametinib (first compound 0.04 µM), 0.753; with IMD-0354 + Trametinib (first compound 0.1265 µM), 0.625. Besides, the relative viability with IMD-0354 + Trametinib (first compound 0.4 µM) was found to be 0.518; with IMD-0354 + Trametinib (first compound 1.265 µM), 0.283; with IMD-0354 + Trametinib (first compound 4 µM) it was 0.277; in the test with IMD-0354 + Vorinostat (first compound 0.04 µM), 1.24; in the test with IMD-0354 + Vorinostat (first compound 0.1265 µM), 0.984; in the test with IMD-0354 + Vorinostat (first compound 0.4 µM) it was 0.706. Further, the figures for the relative viability with IMD-0354 + Vorinostat (first compound 1.265 µM) and with IMD-0354 + Vorinostat (first compound 4 µM) were 0.306 and 0.335, respectively.

With NCI-H3122, the relative viability with IMD-0354 + Pictilisib (first compound 0.04 µM) worked out at 0.737; with IMD-0354 + Pictilisib (first compound 0.1265 µM) it was 0.554; with IMD-0354 + Pictilisib (first compound 0.4 µM), 0.527; with IMD-0354 + Pictilisib (first compound 1.265 µM) it was 0.174; in the test with IMD-0354 + Pictilisib (first compound 4 µM) it was 0.173; with CX-5461 + Phenformin (first compound 0.01 µM) it was 0.385. Moreover, the relative viability stood at 0.343 with CX-5461 + Phenformin (first compound 0.03162 µM); 0.316 in the test with CX-5461 + Phenformin (first compound 0.1 µM); 0.378 with CX-5461 + Phenformin (first compound 0.3162 µM); 0.248 with CX-5461 + Phenformin (first compound 1 µM); 0.215 with IMD-0354 + Trametinib (first compound 0.04 µM); 0.223 in the test with IMD-0354 + Trametinib (first compound 0.1265 µM). In addition, the relative viability in the test with IMD-0354 + Trametinib (first compound 0.4 µM) is 0.178; in the test with IMD-0354 + Trametinib (first compound 1.265 µM), 0.252; with IMD-0354 + Trametinib (first compound 4 µM) it was 0.147; in the test with IMD-0354 + Vorinostat (first compound 0.04 µM), 1.04; in the test with IMD-0354 + Vorinostat (first compound 0.1265 µM), 0.936; with IMD-0354 + Vorinostat (first compound 0.4 µM) it was 0.622. Moreover, the relative viability with IMD-0354 + Vorinostat (first compound 1.265 µM) was 0.3; with IMD-0354 + Vorinostat (first compound 4 µM) it was 0.132.

The record behind these values is the supplement of paper PMC10307832.
